Laboratory results taken from patent US6663881B2 (priority 1993, dated 2003).
Where two headings read alike, the source gives them in different places.

How the values were obtained:
[1] = test system: balloon traumatized left carotid artery
[2] = Biodistribution of cytochalasin B after i.p. injection (HPLC); assay type: in vivo, mice; settings: 50 mg/kg i.p.
Experimental: Biodistribution of Cytochalasin B. To determine the biodistribution of cytochalasin B, mice were injected (i.p.) with 50 mg/kg cytochalasin B. Control mice were injected with DMSO/Tween 20/carboxymethyl cellulose (“vehicle”). The mice were sacrificed at 3, 12, 24 and 72 hours after cytochalasin B or vehicle administration. Organs were removed, homogenized, extracted and the amount of cytochalasin B in tissues quantitated by HPLC. About 75% of the cytochalasin B remained in the peritoneal cavity or at the injection site.

[3] = test system: balloon traumatized left carotid artery; experiment: Inter-arterial infusion of crystalline cytochalasin B in balloon traumatized rat carotid artery; assay type: in vivo, Sprague-Dawley rats
Experimental: Another study employed twenty, male, Sprague-Dawley rats. The rats underwent balloon trauma to their left carotid artery, followed by inter-arterial infusion of a solution containing 1 mg crystalline cytochalasin B in […] vehicle (Hanks sterile salt solution with 0.5% Cremophor) or a diluent (saline) control. Animals were sacrificed immediately after infusion, and 2, 4, 7 and 14 days post-trauma and infusion. Post-sacrifice, the left and the right (control) carotid arteries were removed. Samples of arteries were obtained for quantitation of ^3H-cytochalasin B by oxidation and scintillation counting, histopathology, autoradiography and vascular morphometry. Histopathology documented uniform, circumferential balloon trauma in the arterial wall of the left carotid arteries.

[4] = test system: Vascular smooth muscle cells (BO54); experiment: Scratch-migration assay; assay type: cell-based, baboon; set-up: key: −=no migration; +1=minimal; +2=mild; +3=moderate; +4=marked (maximum density; limit of cell contact inhibition) migration
Experimental: Scratch assays to determine the extent of smooth muscle cell migration inhibition by cytochalasin B were performed in accordance with the following protocol:
Vascular smooth muscle cells (BO54) were derived from explants of baboon aortic smooth muscle, as described in Example 10. The cells were grown in flat bottom, six well tissue culture plates, which hold about 5 ml of medium. The vascular smooth muscle cells were plated at 200,000 cells/well and placed at 37° C. in a humidified 5% CO2 incubator for 18 hours. The wells were then scratched with a sterile portion of a single edge razor blade that was held by clamp or pliers and was brought aseptically into contact with the bottom of the well at a 90° angle. The cells from a small area along the scratch were removed by a sterile cotton tipped applicator while the blade was in contact with the bottom of the well. After incubation, the presence of cells in the “scratched” area is indicative of cell migration across the scratch line.
Briefly, a stock solution of cytochalasin B (Sigma Chemical Co.) in dimethyl sulfoxide (DMSO) at 1 mg/ml was prepared. Test dilutions of cytochalasin B or control medium were added. Each experiment included two sets of plates:
A set: Test agent exposure for 1, 3, 6, 8 and 10 days only; and
B set: Test agent exposure for 1, 3, 6, 8 and 10 days, followed by a seven day recovery time with control medium.
Both sets of plates were fixed (10% formalin in PBS) and stained (0.02% crystal violet) at the end of the timed exposures. Test concentrations for cytochalasin B were 1, 0.1 and 0.01 μg/ml, and a negative medium control was included. Fresh medium and drug were supplied 3 times per week.
In this Table, “M” indicates Migration Grade, wherein −=no migration; +1=minimal; +2=mild; +3=moderate; and +4=marked (maximum density; limit of cell contact inhibition) migration of vascular smooth muscle cells into the cleared area adjacent to the scratch. In this Table, “T” denotes a morphological Toxicity Grade, wherein −=no toxicity; +1=minimal; +2=mild; +3=moderate; and +4=marked toxicity. The migration results are expressed as “Grade in the Cleared Area of the Well/Grade in an Undisturbed Region of the Well.” The toxicity values represent a grade for all cells in each well.

[5] = test system: Vascular smooth muscle (BO54) cells; assay type: cell-based, baboon
[6] = test system: balloon traumatized pig femoral arteries; experiment: Biological stenting of balloon traumatized pig femoral arteries (luminal area morphometry); assay type: in vivo
Experimental: Pig femoral arteries were traumatized as described in Example 7, and then treated with cytochalasin B. About 1.5 to about 2 ml of cytochalasin B at 0.1 μg/ml was infused into portions of the artery that had been separated from other portions by ligatures. The artery was then pressurized for 3 minutes and the fluid aspirated. Approximately 8 to about 30 lambda of the solution is retained in the interstitial space surrounding the cells in the tunica media. Ten femoral arteries (two arteries obtained from each of the 5 pigs that were treated according to the single dose protocol described in Example 7) were then evaluated histologically at 4 days or 3 weeks after cytochalasin B adminstration. The maximal luminal area of each artery was measured and calculated from digitized microscopic images by a BQ System IV computerized morphometric analysis system (R & M Biometrics, Inc., Nashville, Tenn.). This experiment was repeated with 5 additional pigs (two arteries per pig; cytochalasin B dose=0.1 μg/ml, applied for 3 minutes at 1 atm pressure; same time points). The data obtained from the two experiments were combined.
The luminal area of the traumatized and cytochalasin B-treated segments of the arteries were also compared to the luminal area of the normal, untreated region of the femoral artery proximal to the test area. […]

[7] = test system: balloon traumatized rabbit carotid artery; assay type: in vivo

**Q.** Which “morphometry vs untreated controls” value ([1]; 14 days) does the source give for `C=C1[C@@H](C)[C@H]2[C@H](Cc3ccccc3)NC(=O)[C@]23OC(=O)/C=C/[C@H](O)CCC[C@@H](C)C/C=C/[C@H]3[C@@H]1O` [cytochalasin B] here?
**A.** no statistical difference from the controls

**Q.** And the post-surgical weight gain ([1]; periadventitial crystals)?
**A.** delay in post-surgical weight gain

**Q.** What about the “toxicity at the surgical site” value ([1]; periadventitial crystals) of the same compound?
**A.** significant toxicity at the surgical site

**Q.** And the “organ with the highest amount” value [2]?
**A.** liver

**Q.** What about the “amount present over the treated length of artery” value ([3]; day 0) of the same compound?
**A.** approximately 8 ug

**Q.** And the “amount present over the treated length of artery” value ([3]; day 2)?
**A.** less than 2 ng

**Q.** And the crystals by autoradiography ([3]; day 4)?
**A.** not detectable by autoradiography

**Q.** And the “mean luminal area and neointimal area vs diluent control” value ([3]; five treated rats)?
**A.** higher mean luminal area and a smaller neointimal area

**Q.** What about the “neointima formation vs diluent treated rats” value ([3]; morphometric analysis) of the same compound?
**A.** no statistically significant reduction in neointima formation

**Q.** What about the “Toxicity Grade” value ([4]; 7-day Recovery Post Exposure, Day 1, 1.0 μg/mL) of the same compound?
**A.** +2

**Q.** What about the “Toxicity Grade” value ([4]; 7-day Recovery Post Exposure, Day 3, 1.0 μg/mL) of the same compound?
**A.** +1

**Q.** And the “Toxicity Grade” value ([4]; 7-day Recovery Post Exposure, Day 6, 1.0 μg/mL)?
**A.** +3

**Q.** And the “Toxicity Grade” value ([4]; 7-day Recovery Post Exposure, Day 8, 1.0 μg/mL)?
**A.** +3

**Q.** What about the “Toxicity Grade” value ([4]; 7-day Recovery Post Exposure, Day 10, 1.0 μg/mL) of the same compound?
**A.** +3

**Q.** What about the “Toxicity Grade” value ([4]; Continuous Exposure, Day 1, 1.0 μg/mL) of the same compound?
**A.** +3

**Q.** What about the “Toxicity Grade” value ([4]; Continuous Exposure, Day 3, 0.1 μg/mL) of the same compound?
**A.** +1

**Q.** What about the “Toxicity Grade” value ([4]; Continuous Exposure, Day 3, 1.0 μg/mL) of the same compound?
**A.** +3

**Q.** And the “Toxicity Grade” value ([4]; Continuous Exposure, Day 6, 0.1 μg/mL)?
**A.** +1

**Q.** What about the “Toxicity Grade” value ([4]; Continuous Exposure, Day 8, 0.1 μg/mL) of the same compound?
**A.** +1

**Q.** What about the “Toxicity Grade” value ([4]; Continuous Exposure, Day 10, 0.1 μg/mL) of the same compound?
**A.** +1

**Q.** What about the “MED, DNA assay” value ([5]; 5 minute exposure) of the same compound?
**A.** 10 µg/mL

**Q.** And the “DNA synthesis inhibition compared with protein synthesis inhibition” value ([5]; 24 hour assays, 5% FBS, FIGS. 10A-10D)?
**A.** to a greater extent than they inhibited protein synthesis

**Q.** And the “MED, DNA synthesis assay” value ([5]; 24 hour exposure)?
**A.** 0.1 µg/mL

**Q.** And the “lumen area of test region vs normal control segment of the same artery” value ([6]; 0.1 μg/ml for cytochalasin B)?
**A.** approximately two times as large

**Q.** What about the “luminal area vs other test agents or controls” value ([6]; 0.1 μg/ml, 4 day and 3 week post-treatment) of the same compound?
**A.** larger luminal area

**Q.** What about the “artery lumen areas over three weeks vs diluent control” value ([6]; 0.1 μg/ml, two way analysis of variance) of the same compound?
**A.** statistically significant difference (p<0.05)

**Q.** And the “toxicity to the vascular smooth muscle cells” value ([6]; 10 μg/ml dose, dose response study)?
**A.** appeared to be toxic

**Q.** What about the “myofilament reformation (electron micrographs)” value ([6]; about 0.1 to about 10.0 μg/ml) of the same compound?
**A.** myofilament reformation was retarded

**Q.** What about the “constriction or vascular remodeling” value ([6]; pig, in vivo) of the same compound?
**A.** did not undergo the constriction or chronic geometrical (vascular) remodeling

**Q.** And the “incidence of mural microthrombi” value ([6]; vs untreated balloon traumatized arteries)?
**A.** decreased

**Q.** And the intimal proliferation ([7]; Group 1, 2 weeks)?
**A.** minimal intimal and adventital proliferation

**Q.** What about the intimal proliferation ([7]; Group 1, three weeks) of the same compound?
**A.** no intimal proliferation

**Q.** And the intimal proliferation ([7]; Group 1: 20 mg in 1 g bovine collagen gel in collagen mesh wrap, 1 week)?
**A.** no intimal or adventital proliferation

**Q.** What about the intimal proliferation ([7]; Group 2, 3 weeks) of the same compound?
**A.** moderate, irregular intimal proliferation

**Q.** And the intimal proliferation ([7]; Group 2, two weeks)?
**A.** complete inhibition of intimal proliferation

**Q.** And the intimal proliferation ([7]; Group 3, three weeks)?
**A.** moderate amount of intimal hyperplasia

**Q.** What about the intimal proliferation ([7]; Group 3, two weeks) of the same compound?
**A.** mild, irregular intimal proliferation

**Q.** What about the intimal proliferation ([7]; Group 3: 8 mg in 100 mg pluronic gel on collagen mesh wrap, one week) of the same compound?
**A.** mild intimal proliferation

**Q.** What about the intimal proliferation ([7]; Group 4, three weeks) of the same compound?
**A.** minimal to no intimal proliferation

**Q.** And the intimal proliferation ([7]; Group 4, two weeks)?
**A.** minimal intimal proliferation

**Q.** What about the intimal proliferation ([7]; Group 7a, three weeks) of the same compound?
**A.** mild irregular intimal proliferation

**Q.** What about the intimal proliferation ([7]; Group 7a: 10% wt/wt, one week) of the same compound?
**A.** no intimal proliferation

**Q.** What about the re-endothelization ([7]; Group 8a, animal 1254) of the same compound?
**A.** approximately 60%

**Q.** What about the intimal proliferation ([7]; Group 8a, animal 1255) of the same compound?
**A.** mild to moderate intimal proliferation

**Q.** And the intimal proliferation ([7]; Group 8a, animal 1256)?
**A.** moderate intimal proliferation

**Q.** What about the intimal proliferation ([7]; Group 8a: 10% wrap 2 weeks, removed, 2 weeks later, animal 1254) of the same compound?
**A.** none to mild

**Q.** And the intimal proliferation ([7]; Group 10 (1% wrap, 2 weeks after removal), animal 1304)?
**A.** moderate initmal proliferation

**Q.** What about the re-endothelization ([7]; Group 10, animal 1304) of the same compound?
**A.** 100%

**Q.** And the intimal proliferation ([7]; Group 11 (1% wrap, four weeks after removal), animal 1307)?
**A.** moderate initmal proliferation

**Q.** What about the intimal proliferation ([7]; Group 11, animal 1308) of the same compound?
**A.** moderate intimal proliferation

**Q.** And the re-endothelization ([7]; Group 11, animal 1308)?
**A.** 100%

**Q.** What about the intimal proliferation ([7]; Group 11, animal 1309) of the same compound?
**A.** marked intimal proliferation

**Q.** What about the “qualitative difference between test and control animals” value ([7]; Groups 10 and 11: 1% wt/wt silicone wrap 2 weeks, removed, evaluated 2 or 4 weeks later) of the same compound?
**A.** No significant difference
